Test results published in patent publication US12396461B2, “Functional peptides having antimicrobial activity against phytopathogenic microorganisms” (TOYOTA JIDOSHA KABUSHIKI KAISHA, priority 2019, dated 2025).
Where two headings read alike, the source gives them in different places.

What was measured:
Format in all cases: cell-based
[1] = test system: Colletotrichum orbiculare; parameters: key to Plate antimicrobial activity test Colletotrichum orbiculare, level: a case where hyphae extended to the entire well and no antimicrobial activity was found is defined as “level 0,”; a case where hyphae extended to less than a half of the well and thus the peptide inhibited the growth of the hyphae is defined as “level 1,”; a case where ungerminated spores were present and the peptide partially inhibited the germination is defined as “level 2,”; a case where all spores were ungerminated and the peptide completely inhibited the germination is defined as “level 3.”; settings: 25° C. for 1 day or 2 days, microscopic observation
Pyricularia oryzae = test system: Pyricularia oryzae; parameters: key to Plate antimicrobial activity test Pyricularia oryzae, level: a case where hyphae extended to the entire well and no antimicrobial activity was found is defined as “level 0,”; a case where hyphae extended to less than a half of the well and thus the peptide inhibited the growth of the hyphae is defined as “level 1,”; a case where ungerminated spores were present and the peptide partially inhibited the germination is defined as “level 2,”; a case where all spores were ungerminated and the peptide completely inhibited the germination is defined as “level 3.”; settings: 25° C. for 1 day or 2 days, microscopic observation
[2] = test system: Colletotrichum destructivum; parameters: key to Plate antimicrobial activity test Colletotrichum destructivum, level: a case where hyphae extended to the entire well and no antimicrobial activity was found is defined as “level 0,”; a case where hyphae extended to less than a half of the well and thus the peptide inhibited the growth of the hyphae is defined as “level 1,”; a case where ungerminated spores were present and the peptide partially inhibited the germination is defined as “level 2,”; a case where all spores were ungerminated and the peptide completely inhibited the germination is defined as “level 3.”; settings: 25° C. for 1 day or 2 days, microscopic observation
Botrytis cinerea = test system: Botrytis cinerea; parameters: key to Plate antimicrobial activity test Botrytis cinerea, level: a case where hyphae extended to the entire well and no antimicrobial activity was found is defined as “level 0,”; a case where hyphae extended to less than a half of the well and thus the peptide inhibited the growth of the hyphae is defined as “level 1,”; a case where ungerminated spores were present and the peptide partially inhibited the germination is defined as “level 2,”; a case where all spores were ungerminated and the peptide completely inhibited the germination is defined as “level 3.”; settings: 25° C. for 1 day or 2 days, microscopic observation
Fusarium oxysporum = test system: Fusarium oxysporum; parameters: key to Plate antimicrobial activity test Fusarium oxysporum, level: a case where hyphae extended to the entire well and no antimicrobial activity was found is defined as “level 0,”; a case where hyphae extended to less than a half of the well and thus the peptide inhibited the growth of the hyphae is defined as “level 1,”; a case where ungerminated spores were present and the peptide partially inhibited the germination is defined as “level 2,”; a case where all spores were ungerminated and the peptide completely inhibited the germination is defined as “level 3.”

Substance | Plate antimicrobial activity test Colletotrichum orbiculare, level ([1]; peptide 1 μM) | Plate antimicrobial activity test Colletotrichum orbiculare, level ([1]; peptide 10 μM) | Plate antimicrobial activity test Colletotrichum orbiculare, level ([1]; peptide 100 μM) | Plate antimicrobial activity test Pyricularia oryzae, level (Pyricularia oryzae; peptide 1 μM) | Plate antimicrobial activity test Pyricularia oryzae, level (Pyricularia oryzae; peptide 10 μM) | Plate antimicrobial activity test Pyricularia oryzae, level (Pyricularia oryzae; peptide 100 μM) | Plate antimicrobial activity test Colletotrichum destructivum, level ([2]; peptide 1 μM) | Plate antimicrobial activity test Colletotrichum destructivum, level ([2]; peptide 10 μM) | Plate antimicrobial activity test Colletotrichum destructivum, level ([2]; peptide 100 μM) | Plate antimicrobial activity test Botrytis cinerea, level (Botrytis cinerea; peptide 1 μM) | Plate antimicrobial activity test Botrytis cinerea, level (Botrytis cinerea; peptide 10 μM) | Plate antimicrobial activity test Botrytis cinerea, level (Botrytis cinerea; peptide 100 μM) | Plate antimicrobial activity test Fusarium oxysporum, level (Fusarium oxysporum)
KVKNKKVA (listed as Solanum lycopersicum) [TsORF6-1-8aa-10, partial peptide of TsORF6-1, 8 amino acid residues] | 0 | 0 | 0 | 0 | 0 | 0 | 0 | 0 | 0 | 0 | 0 | 0 | 0
MIVVK (listed as Solanum lycopersicum) [TsORF6-1-5aa-4, partial peptide of TsORF6-1, 5 amino acid residues] | 0 | 0 | 1 | 0 | 0 | 1 | 0 | 0 | 1 | 0 | 0 | 1 | 0
MIVVKTKV (listed as Solanum lycopersicum) [TsORF6-1-8aa-4, partial peptide of TsORF6-1, 8 amino acid residues] | 0 | 0 | 0 | 0 | 0 | 0 | 0 | 0 | 0 | 0 | 0 | 0 | 0
NKKVA (listed as Solanum lycopersicum) [TsORF6-1-5aa-13, partial peptide of TsORF6-1, 5 amino acid residues] | 0 | 0 | 0 | 0 | 0 | 0 | 0 | 0 | 0 | 0 | 0 | 0 | 0
NKKVAKMM (listed as Solanum lycopersicum) [TsORF6-1-8aa-13, partial peptide of TsORF6-1, 8 amino acid residues] | 0 | 0 | 0 | 0 | 0 | 0 | 0 | 0 | 0 | 0 | 0 | 0 | 0
TKVKN (listed as Solanum lycopersicum) [TsORF6-1-5aa-9, partial peptide of TsORF6-1, 5 amino acid residues] | 0 | 0 | 0 | 0 | 0 | 0 | 0 | 0 | 0 | 0 | 0 | 0 | 0
TKVKNKKV (listed as Solanum lycopersicum) [TsORF6-1-8aa-9, partial peptide of TsORF6-1, 8 amino acid residues] | 0 | 0 | 0 | 0 | 0 | 0 | 0 | 0 | 0 | 0 | 0 | 0 | 0
VKNKK (listed as Solanum lycopersicum) [TsORF6-1-5aa-11, partial peptide of TsORF6-1, 5 amino acid residues] | 0 | 0 | 0 | 0 | 0 | 0 | 0 | 0 | 0 | 0 | 0 | 0 | 0
VKNKKVAK (listed as Solanum lycopersicum) [TsORF6-1-8aa-11, partial peptide of TsORF6-1, 8 amino acid residues] | 0 | 0 | 0 | 0 | 0 | 0 | 0 | 0 | 0 | 0 | 0 | 0 | 0
